These results are taken from paper PMC11554305, “Functional identification of soluble uric acid as an endogenous inhibitor of CD38” (eLife, 2024).

The structures appear in SMILES notation.

Series [1] deals with cLPS-induced systemic inflammation. The series can be described thus: cLPS-induced systemic inflammation. It counts as in vivo, mouse. To be noted: WT mice; for Effect on cLPS-induced systemic inflammation: OA or inosine alone, 1-day oral treatment. The protocol: Plasma sUA levels in WT and CD38 KO mice were increased to the minimum physiological levels of humans by 1-day sUA supplementation (OA plus inosine). Two hours after the last treatment of OA, or OA plus inosine, the mice were intraperitoneally injected with sterile PBS or cLPS (2 or 20 mg/kg), the injection volume was 3 mL/kg. Four hours (20 mg/kg) or 6 hr (2 mg/kg) after stimulation, the mice were sacrificed and whole blood, plasma, and serum were collected.
(§1) Human IL-1β, mouse IL-1β, IL-6, IL-18, TNF-α, and CXCL1 levels were measured according to the protocols provided by the manufacturer. Serum samples were diluted before ELISA when applicable. In this study, all the samples were frozen after collection and thawed before ELISA.

The nature of series [2]: Moderate sUA supplementation in mice (plasma, whole blood, tissue and serum levels). To be noted: for Interference with whole blood NAD+ metabolism: OA or inosine alone, 1-day treatment, inflammatory conditions. It counts as in vivo, mouse. On the procedure:
Plasma sUA levels in mice were increased to the minimum physiological levels of humans by moderate sUA supplementation. For 1-day sUA supplementation, WT and CD38 KO mice received oral administration of saline, OA (1.5 g/kg), or OA (1.5 g/kg) plus inosine (1.5 g/kg), the gavage volume was 5 mL/kg. Drug suspension in saline was freshly prepared and warmed to 37°C before each treatment. The mice received the first treatment on the evening (19:00) of the first day and the second treatment on the morning (9:00) of the second day. For 3- or 7-day sUA supplementation, WT and CD38 KO mice received the same treatment twice daily from the evening of the first day to the morning of the last day. Four hours after the last treatment, the mice were sacrificed and whole blood, serum, plasma, and tissues were collected for metabolic studies. For immunological studies, mice were stimulated with different ligands 2 hr after the second treatment on the morning (9:00) of the second day.
WT mice received oral administration of saline, OA, or OA plus inosine (1-day supplementation model, as described above). One day (28 hr) or 3 days (76 hr) after the second treatment, the mice were sacrificed and whole blood and plasma were collected.
The collected whole blood samples were immediately diluted 10-fold in 5% ice-cold PCA and homogenized on ice. After 10 min centrifugation at 15,000 rpm, 4°C, the supernatant was subpackaged for measurement or –80°C storage. For NAD^+ measurement in whole blood, the supernatant was handled without freezing and thawing and was measured within 24 hr of sample collection. For measurement of plasma sUA, after sample collection, we immediately diluted the plasma with 5% ice-cold PCA, after vortex, samples were centrifuged at 15,000 rpm, 4°C for 10 min, the collected supernatant was used for the subsequent handling and measurement within 24 hr.
After the collection of blood samples, the mice were immediately perfused with ice-cold sterile PBS. The tissue samples were collected, dried with tissue paper, and weighed. All the tissue samples were immediately homogenized in 5% ice-cold PCA on ice, then centrifuged at 15,000 rpm, 4°C for 10 min. The supernatant was collected and stored at –80°C until further handling for measurement (see LC-MS/MS analysis).
As mentioned above, samples (cells, tissues, blood, or reaction buffer) were treated with ice-cold PCA, after extraction and centrifugation, the collected supernatant was appropriately diluted in 5% ice-cold PCA when applicable, and then was vortexed for 30 s and centrifuged at 15,000 rpm, 4°C for 5 min. Afterward, 30 μL supernatant was added into 200 μL 5 mM ammonium formate containing internal standards at indicated concentrations. Then, all the samples were vortexed for 30 s and centrifuged at 15,000 rpm, 4°C for 5 min again, the final supernatant was used for subsequent measurement. All the samples after handling were immediately analyzed in this study without freezing and thawing.
The LC-MS/MS system consisted of a triple quadrupole LCMS-8050 (Shimadzu) and an LC-30A system (Shimadzu). NAD^+, NMN, and the N-cyclohexyl benzamide (NCB, internal standard, 5 ng/mL) were eluted on Altlantis HILIC Silica (2.1×150 mm, 5 μm) at 40°C using an isocratic mobile phase containing 60% water with 0.1% formic acid and 40% acetonitrile with 0.1% formic acid at 0.4 mL/min. The selected transitions of m/z were 664.10 → 136.10 for NAD^+, 334.95 → 123.15 for NMN, and 204.10 → 122.20 for NCB in positive ion mode. NAD^+ and NMN were measured independently in this study, as their peaks were hardly separated within a short time.
sUA, cADPR, and FYU-981 (internal standard, 1 μM, Fuji Yakuhin Co., Ltd.) were eluted on CAPCELL PAK C8 TYPE UG 120 (2×150 mm, 5 μm) at 40°C. sUA and FYU-981 were separated using a gradient mobile phase containing water with 0.1% formic acid (A) and acetonitrile with 0.1% formic acid (B) at 0.4 mL/min. […]

Series [3] relates to MSU crystal-induced peritonitis. The series can be described thus: MSU crystal-induced peritonitis. To be noted: WT mice, MSU crystals 2 mg/mouse; for Effect on MSU crystal-induced peritonitis: OA or inosine alone, 1-day oral treatment. It is filed as in vivo. The protocol: Plasma sUA levels in WT and CD38 KO mice were increased to the minimum physiological levels of humans by 1-day sUA supplementation (OA plus inosine). Two hours after the last treatment of OA, or OA plus inosine, the mice were intraperitoneally injected with sterile PBS or MSU crystals (2 mg/mouse), and the injection volume was 200 μL/mouse. Six hours after stimulation, the mice were sacrificed and blood samples were collected. For each mouse, the peritoneal cavity was washed with 5 mL ice-cold sterile PBS, the supernatant was collected by centrifugation for subsequent ELISA, and cell pellets were used for total viable cell count by Trypan Blue staining. In brief, cell pellet from 1.5 mL of peritoneal lavage fluid was resuspended in RBC lysis buffer for 30 s, sterile PBS (ninefold volume) was added to terminate lysis. Afterward, the cells were centrifuged at 1000 rpm for 5 min and resuspended in sterile PBS for viable cell count. For neutrophil count, peritoneal lavage fluid was directly used for smears after appropriate dilution, and subsequently, Wright-Giemsa staining was performed according to the protocol provided by the manufacturer.
as §1

Setting [4] is: 6 hr, 1-day sUA supplementation, not in CD38 KO mice.

As to `O=c1[nH]cnc2c1ncn2[C@@H]1O[C@H](CO)[C@@H](O)[C@H]1O` [Inosine, inosine, reference compound], the “Effect on cLPS-induced systemic inflammation” value in series [1] (cLPS 2 mg/kg) was “hardly affected”. In addition, in series [2] (WT mice), the “Interference with whole blood NAD+ metabolism” value is recorded as “had no interference”. Also, the “Effect on MSU crystal-induced peritonitis” value in series [3] is reported as “hardly affected”.

For the compound `O=C(O)c1nc(=O)[nH]c(=O)[nH]1` [OA, oxonic acid, reference compound], the “Effect on cLPS-induced systemic inflammation” value in series [1] (cLPS 2 mg/kg) is on record as “hardly affected”. For the same compound, the “Interference with whole blood NAD+ metabolism” value in series [2] (WT mice) was “had no interference”. Also, the “Effect on plasma sUA levels” value in series [2] (mice, short-term administration of OA alone) is “failed to increase plasma sUA levels”. The “Effect on MSU crystal-induced peritonitis” value in series [3] is “hardly affected”.

On to `O=c1[nH]c(=O)c2[nH]c(=O)[nH]c2[nH]1` [sUA, uric acid], for which the “cLPS-induced production of serum IL-1β and IL-18” value in series [1] (cLPS 2 mg/kg, 6 hr, 1-day sUA supplementation (OA plus inosine), abrogated in CD38 KO mice) was “suppressed”. The “Serum TNF-α levels” value in series [1] (cLPS 2 mg/kg, 6 hr, 1-day sUA supplementation) was “without affecting”. In addition, the “High-dose cLPS-induced systemic inflammation” value in series [1] (cLPS 20 mg/kg, 4 hr) is listed as “hardly limited”. The “Whole blood NAD+ levels” value in series [2] (1- or 3-day moderate sUA supplementation (OA plus inosine), WT mice, not in CD38 KO mice) was “slightly but significantly increased”. Also, the “cADPR production in whole blood” value in series [2] (1-day sUA supplementation, inflammatory conditions (cLPS 2 mg/kg), not under non-inflammatory conditions) is “decrease in cADPR production”. In series [2] (7-day sUA-supplementation model), the “NAD+ levels in the brain and heart” value is on record as “appeared to be elevated”. Besides, the “Plasma sUA and whole blood NAD+ after sUA release” value in series [2] (WT mice, 1-day or 3-day release after 1-day supplementation) is “gradually returned to their initial levels”. The concentration at 4 h in series [2] (mouse, plasma, mice, oral OA 1.5 g/kg plus inosine 1.5 g/kg, read-out: Plasma sUA levels in the sUA-supplementation models) was approximately 120 µM. The “NMN levels in vivo” value in series [2] (sUA supplementation, whole blood) is reported as “minor effect on NMN levels”. The “Serum IL-1β production” value in series [2] (sUA-supplementation models within 7 days) is “did not show an increase”. Also, in series [3] (setting [4]), the “Production of IL-1β and IL-6, peritoneal lavage fluid” value is “reduced the production of IL-1β and IL-6”; the “Recruitment of viable cells and neutrophils, peritoneal lavage fluid” value was “inhibited the recruitment of viable cells and neutrophils”.
